Laboratory results as given in patent publication US9637469B2, “Pyridine derivative” (Teijin Pharma Limited, priority 2012, dated 2017).
pIC50: −log10 of the molar value.

What was measured:
[1] = system: Cebus apella; test: Test for drug efficacy in Cebus apella (uric acid excretion rate); assay type: in vivo; details: 3 mg/kg to 30 mg/kg in 0.5% methylcellulose into stomach via the nasal cavity, up to 24 hours
Experimental: A test compound (3 mg/kg to 30 mg/kg) prepared by suspending in a 0.5% methylcellulose solution was administered to Cebus apella into stomach via the nasal cavity using a disposable catheter and a syringe barrel. Blood samples were taken before administration and 30 minutes, 1 hour, 2 hours, 4 hours, 8 hours, 12 hours, and 24 hours after administration; and urine samples were collected for the time intervals of immediately to 4 hours after administration, from 4 hours to 8 hours after administration, from 8 hours to 16 hours after administration, and from 16 hours to 24 hours after administration. Concentrations of uric acid and creatinine in the blood and urine samples collected were measured by an automatic analyzer (JEOL Ltd.). Uric acid and creatine were measured using L-type Wako UA.F (Wako Pure Chemicals Industries, Ltd.) and L-type Creatine F (Wako Pure Chemicals Industries, Ltd.) respectively. Uric acid clearance was calculated from the uric acid concentrations in blood and urine and, similarly, creatinine clearance was calculated from the creatinine concentrations.

[2] = target: T1, human URAT1 (Homo sapiens, UniProt Q96S37); test: Test for inhibition of uric acid transport using human URAT1-expressing cells;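 also: three stars up to 0.2 µM two stars 0.2-2 µM one star 2-20 µM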; assay type: cell-based; details: HEK 293 cells expressing human URAT1, 14C-labeled uric acid 25 μM, uptake 37° C. for 5 min
T1 construct: Full-length cDNA of human URAT1 (hURAT1)
T1 sequence (Q96S37 1-553): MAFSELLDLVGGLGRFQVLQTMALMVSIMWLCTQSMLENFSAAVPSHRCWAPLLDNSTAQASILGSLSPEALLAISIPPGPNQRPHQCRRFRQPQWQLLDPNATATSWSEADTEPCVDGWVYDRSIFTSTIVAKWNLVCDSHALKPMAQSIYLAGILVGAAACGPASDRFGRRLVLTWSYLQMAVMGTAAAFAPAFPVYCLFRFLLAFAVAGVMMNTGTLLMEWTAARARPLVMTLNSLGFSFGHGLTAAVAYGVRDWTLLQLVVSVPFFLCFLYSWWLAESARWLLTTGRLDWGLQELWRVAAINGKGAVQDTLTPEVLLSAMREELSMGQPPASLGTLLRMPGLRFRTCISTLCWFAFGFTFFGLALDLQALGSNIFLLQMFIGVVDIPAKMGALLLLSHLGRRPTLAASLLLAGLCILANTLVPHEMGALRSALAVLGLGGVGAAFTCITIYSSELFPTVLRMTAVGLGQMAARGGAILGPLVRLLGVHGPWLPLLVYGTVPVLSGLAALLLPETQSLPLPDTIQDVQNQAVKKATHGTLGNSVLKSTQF
Summary of the method: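 IC50 values reflect inhibition of ¹⁴C-uric acid uptake (25 μM final, 5 min, 37 °C) by compound. Cells were HEK293 stably expressing full-length human URAT1, preincubated in Na-gluconate-substituted HBSS. Radioactivity in lysates was expressed relative to DMSO control as 100%.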

SMILES	Inhibitory Activity (IC50 of uric acid transport inhibition) [2]	pIC50 ([2]; read-out: Inhibitory Activity (IC50 of uric acid transport inhibition))	uricosuric effect (uric acid excretion rate) [1]
CCc1nc(-c2cccnc2)n(Cc2cc(Cl)ccc2Cl)c1C(=O)O [Compound A14, 1-(2,5-dichlorobenzyl)-4-ethyl-2-(pyridin-3-yl)-1H-imidazole-5-carboxylic acid]	* * *		excellent uricosuric effect was confirmed
O=C(O)c1c(C(F)(F)F)nc(-c2cccnc2)n1Cc1cc(Cl)ccc1Cl [Compound A19, 1-(2,5-dichlorobenzyl)-2-(pyridin-3-yl)-4-(trifluoromethyl)-1H-imidazole-5-carboxylic acid]	* * *		excellent uricosuric effect was confirmed
Cc1nc(-c2cncc(C(F)(F)F)c2)n(Cc2cc(Cl)ccc2Cl)c1C(=O)O [Compound A139, 1-(2,5-dichlorobenzyl)-4-methyl-2-(5-(trifluoromethyl)pyridin-3-yl)-1H-imidazole-5-carboxylic acid]	* * *		excellent uricosuric effect was confirmed
O=C(O)c1ccc(-c2cccnc2)n1Cc1cccc2ccccc12 [Compound B1, 1-(naphthalen-1-ylmethyl)-2-(pyridin-3-yl)-1H-pyrrole-5-carboxylic acid]	* * *		excellent uricosuric effect was confirmed
Cc1nc(-c2cccnc2)n(Cc2cccc3ccsc23)c1C(=O)O [Compound A81, 1-(benzo[b]thiophen-7-ylmethyl)-4-methyl-2-(pyridin-3-yl)-1H-imidazole-5-carboxylic acid]	* *		excellent uricosuric effect was confirmed
O=C(O)c1ccc(-c2cccnc2)n1Cc1cc(Cl)ccc1Cl [Compound B11, 1-(2,5-dichlorobenzyl)-2-(pyridin-3-yl)-1H-pyrrole-5-carboxylic acid]	* * *		excellent uricosuric effect was confirmed
Cc1nc(-c2cccnc2)n(Cc2cc(Cl)ccc2Cl)c1C(=O)O [Compound A13, 1-(2,5-dichlorobenzyl)-2-(pyridin-3-yl)-4-methyl-1H-imidazole-5-carboxylic acid]	* * *		excellent uricosuric effect was confirmed
Cc1nc(-c2cccnc2)n(Cc2cccc3ccccc23)c1C(=O)O [Compound A2, 4-methyl-1-(naphthalen-1-ylmethyl)-2-(pyridin-3-yl)-1H-imidazole-5-carboxylic acid]	* *		excellent uricosuric effect was confirmed
Cc1ccc(C)c(Cn2c(-c3cccnc3)nc(C)c2C(=O)O)c1 [Compound A1, 1-(2,5-dimehylbenzyl)-4-methyl-2-(pyridin-3-yl)-1H-imidazole-5-carboxylic acid]	* *		excellent uricosuric effect was confirmed
Cc1nc(-c2cncc(F)c2)n(Cc2cccc3ccccc23)c1C(=O)O [Compound A119, 2-(5-fluoropyridin-3-yl)-4-methyl-1-(naphthalen-1-ylmethyl)-1H-imidazole-5-carboxylic acid]	* *		excellent uricosuric effect was confirmed
CC(C)c1nc(-c2cccnc2)n(Cc2cc(Cl)ccc2Cl)c1C(=O)O [Compound A26, 1-(2,5-dichlorobenzyl)-4-isopropyl-2-(pyridin-3-yl)-1H-imidazole-5-carboxylic acid]	* * *		excellent uricosuric effect was confirmed
Cc1nc(-c2cncc(Cl)c2)n(Cc2cccc3ccccc23)c1C(=O)O [Compound A121, 2-(5-chloropyridin-3-yl)-4-methyl-1-(naphthalen-1-ylmethyl)-1H-imidazole-5-carboxylic acid]	* *		excellent uricosuric effect was confirmed
Cc1nc(-c2cncc([N+](=O)[O-])c2)n(Cc2cc(Cl)ccc2Cl)c1C(=O)O [Compound A167, 1-(2,5-dichlorobenzyl)-4-methyl-2-(5-nitropyridin-3-yl)-1H-imidazole-5-carboxylic acid]	* * *		
Cc1nc(-c2ccncc2)n(Cc2cc(Cl)ccc2Cl)c1C(=O)O [Compound A244, 1-(2,5-dichlorobenzyl)-4-methyl-2-(pyridin-4-yl)-1H-imidazole-5-carboxylic acid]	* *		
Cc1nc(-c2cccnc2)n(Cc2cccc(OC(F)(F)F)c2)c1C(=O)O [Compound A63]		4.70 to 5.70	
Cc1cncc(-c2nc(C)c(C(=O)O)n2Cc2cc(Cl)sc2Cl)c1 [Compound A227, 1-((2,5-dichlorothiophen-3-yl)methyl)-4-methyl-2-(5-methylpyridin-3-yl)-1H-imidazole-5-carboxylic acid]	* * *		

Further lines, with some results ahead:

Inhibitory Activity (IC50 of uric acid transport inhibition) [2]	pIC50 ([2]; read-out: Inhibitory Activity (IC50 of uric acid transport inhibition))	SMILES	uricosuric effect (uric acid excretion rate) [1]
* * *		Cc1nc(-c2cncc(Cl)c2)n(Cc2cc(Cl)ccc2Cl)c1C(=O)O [Compound A135, 2-(5-chloropyridin-3-yl)-1-(2,5-dichlorobenzyl)-4-methyl-1H-imidazole-5-carboxylic acid]	excellent uricosuric effect was confirmed
* * *		O=C(O)c1c(C2CC2)nc(-c2cncc(Cl)c2)n1Cc1cc(Cl)ccc1Cl [Compound A147, 2-(5-chloropyridin-3-yl)-4-cyclopropyl-1-(2,5-dichlorobenzyl)-1H-imidazole-5-carboxylic acid]	excellent uricosuric effect was confirmed
* * *		Cc1cncc(-c2nc(C)c(C(=O)O)n2Cc2cc(Cl)ccc2Cl)c1 [Compound A156, 1-(2,5-dichlorobenzyl)-4-methyl-2-(5-methylpyridin-3-yl)-1H-imidazole-5-carboxylic acid]	excellent uricosuric effect was confirmed
* * *		O=C(O)c1c(C(F)(F)F)nc(-c2cncc(Cl)c2)n1Cc1cc(Cl)ccc1Cl [Compound A137, 2-(5-chloropyridin-3-yl)-1-(2,5-dichlorobenzyl)-4-(trifluoromethyl)-1H-imidazole-5-carboxylic acid]	excellent uricosuric effect was confirmed
* * *		O=C(O)c1c(C2CC2)nc(-c2cccnc2)n1Cc1cc(Cl)ccc1Cl [Compound A15, 4-cyclopropyl-1-(2,5-dichlorobenzyl)-2-(pyridin-3-yl)-1H-imidazole-5-carboxylic acid]	excellent uricosuric effect was confirmed
* * *		O=C(O)c1cnc(-c2cncc(Cl)c2)n1Cc1cc(Cl)ccc1Cl [Compound A169, 2-(5-chloropyridin-3-yl)-1-(2,5-dichlorobenzyl)-1H-imidazole-5-carboxylic acid]	excellent uricosuric effect was confirmed
* * *		O=C(O)c1c(Cl)nc(-c2cncc(Cl)c2)n1Cc1cc(Cl)ccc1Cl [Compound A220, 4-chloro-2-(5-chloropyridine-3-yl)-1-(2,5-dichlorobenzyl)-1H-imidazole-5-carboxylic acid]	
